Experiments:
[1] = test system: LFA-1 activation; assay: LFA-1 activation staining (ICAM-1/Fc chimera, flow cytometry) of T cells activated by anti-CD3/CD28 bead; assay type: cell-based, human
Description: Half million CD4 T cells in 500 μl culture medium were treated with 5 μl of human IgG (Jackson Immuno Research, West Grove, Pa.) to block non-specific staining. Cells were stained with 10 μl (50 μg/ml) of human ICAM-1 Fc chimera (R&D System, Minneapolis, Minn.) for 20 min at 4° C. Cells were washed and blocked by 5 μl of mouse IgG (Jackson ImmunoResearch, West Grove, Pa.), followed by the addition of 10 μl of FITC labeled mouse anti-human Fc (Jackson ImmunoResearch, West Grove, Pa.), and incubated for 20 min at 4° C. Cells were finally washed and resuspended in 500 μl of 1% paraformaldehyde for flow cytometry.
Thus, the effect of Jas on T cell activity was determined. FIG. 3A illustrates inhibition of HIV-1 latent infection by Jas. Effects of Jas on LFA-1 activation also were tested. Jas treated or untreated resting T cells were activated by anti-CD3/CD28 bead and stained with human ICAM-1/Fc chimera and analyzed by flow cytometer. The effects of Jas on IL-2 secretion also were measured. […] Cells were treated with Jas for 2 hours, washed, infected with HIV-1 for 5 days, then activated by anti-CD3/CD28 bead. […] Following infection, cellular DNA was PCR amplified for viral late DNA and β-actin pseudogene. Cells were pre-activated with PHA plus IL-2, then treated and infected as in FIG. 3A. […] CEM-SS cell were treated and infected as in FIG. 3A. […]

[2] = test system: HIV-1; assay: PCR amplification of intracellular viral late DNA (viral entry); assay type: cell-based, HIV-1NL4-3; conditions: 120 nM
Description: To remove plasmid DNA contamination, viral stock was treated with Benzonase (Novagen, Madison, WI) (250 U/ml) at […] for 15 min before infection. Total cellular DNA were purified using SV total RNA isolation kit as recommended by the manufacture (Promega, Madison, WI). For detection of viral late reverse transcription products by PCR, forward primer HIV/Tat-Rev-5’(5′[…] 3′; SEQ ID NO: 6) and reverse primer LTR-gag2 (5′[…] 3′; SEQ ID NO: 7) were used. PCR was carried out in 1× Ambion PCR buffer, 125 μM dNTP, 50 pmol each primer, 1U SuperTaq Plus (Ambion Inc. Austin, TX) with 30 cycles at 94° C. for 20 seconds, 68° C. for 60 seconds. For relative quantification, the cellular-actin pseudogene were co-amplified using QuantumRNA-actin Internal Standards (Ambion Inc. Austin, TX), with a ratio from 5/5 to 1/9 for actin primer/competitor.
Thus, the effect of Jas on T cell activity was determined. FIG. 3A illustrates inhibition of HIV-1 latent infection by Jas. Effects of Jas on LFA-1 activation also were tested. Jas treated or untreated resting T cells were activated by anti-CD3/CD28 bead and stained with human ICAM-1/Fc chimera and analyzed by flow cytometer. The effects of Jas on IL-2 secretion also were measured. […] Cells were treated with Jas for 2 hours, washed, infected with HIV-1 for 5 days, then activated by anti-CD3/CD28 bead. […]

In the case of C/C1=C\[C@H](C)C[C@H](C)OC(=O)C[C@H](c2ccc(O)cc2)NC(=O)[C@@H](Cc2c(Br)[nH]c3ccccc23)N(C)C(=O)[C@H](C)NC(=O)[C@@H](C)C1 [Jas, Jasplakinolide], the “inhibition of LFA-1 activation” value ([1]; 120 nM and below) is reported as “no detectable inhibition”, the “inhibition of LFA-1 activation” value ([1]; 3 1μM Jas) is reported as “greatly inhibited” and the “intracellular viral DNA, treated vs untreated cells” value [2] is reported as “did not detect any difference”.

— patent publication US7662547B2, “Compositions and methods for detecting and treating HIV infections” (priority 2006, dated 2010)
